According to ChEMBL document CHEMBL1150634, “New dimeric macrolide glycosides from the marine sponge Myriastra clavosa” (J Nat Prod, 2002):
Active and inactive are the calls of the source.

Experiments:
Type in all cases: functional, cell-based
COLO 205 = experiment: Cytotoxicity against human COLO205 cells at 10 ug/mL after 2 days by XTT assay
LOX = experiment: Cytotoxicity against human LOX cells at 10 ug/mL after 2 days by XTT assay
Malme-3M = experiment: Cytotoxicity against human MALME-3M cells at 10 ug/mL after 2 days by XTT assay
K562 = experiment: Cytotoxicity against human K562 cells at 10 ug/mL after 2 days by XTT assay
MOLT-4 = experiment: Cytotoxicity against human MOLT4 cells at 10 ug/mL after 2 days by XTT assay
A549 = experiment: Cytotoxicity against human A549 cells at 10 ug/mL after 2 days by XTT assay
NCI-H460 = experiment: Cytotoxicity against human H460 cells at 10 ug/mL after 2 days by XTT assay
OVACR3 = experiment: Cytotoxicity against […] at 10 ug/mL after 2 days by XTT assay
SNB-19 = experiment: Cytotoxicity against human SNB19 cells at 10 ug/mL after 2 days by XTT assay
MCF7 = experiment: Cytotoxicity against human MCF7 cells at 10 ug/mL after 2 days by XTT assay

Measured: Activity

CO[C@@H]1[C@@H](OC)[C@H](O[C@H]2C[C@H]3C[C@@H]([C@H]4C[C@@H]4C)OC(=O)C[C@@H]4O[C@@H](C[C@H](O[C@@H]5OC[C@@H](OC)[C@H](OC)[C@H]5OC)[C@H]4C)C[C@@H]([C@H]4C[C@@H]4C)OC(=O)C[C@H](O3)[C@@H]2C)OC[C@H]1O
inactive: all assays above
